Experimental data published in patent publication US12516048B2, “B-lactam compounds, their preparation and use as antibacterial agents” (NINGXIA ACADEMY OF AGRICULTURE AND FORESTRY SCIENCES, priority 2020, dated 2026).

Tests used:
Test in all cases: MIC determination, broth microdilution (CLSI)
Type in all cases: cell-based
[1] = tested on: P. aeruginosa clinical isolate; conditions: Pseudomonas aeruginosa, Mueller Hinton Broth II, 37° C., 18-24 hours, read-out: Strain 9 MIC
Method: (§1) Compounds of this invention were tested for antimicrobial activity by determining minimum inhibitory concentrations (MICs, in μg/mL) using the broth microdilution method according to the guidelines of the Clinical Laboratories and Standards Institute (“Methods for Dilution Antimicrobial Susceptibility Tests for Bacteria that Grow Aerobically”, Approved standard, 7th ed., Clinical and Laboratory Standards Institute (CLSI) Document M7-A8, Wayne, Pa., USA, 2009.). AZT: aztreonam (AZT) and ceftazidime (CAZ) were used as control antibiotics. Test compounds were dissolved in DMSO. The compounds were then diluted in microbial growth medium (Mueller Hinton Broth II, cation adjusted) resulting in a final concentration range of 0.063-64 μg/mL in serial two-fold dilution. In all cases the final DMSO concentration was less than 0.5%. Bacteria were added to 96-well microtitre plates containing the two-fold dilutions of the compounds; the final cell density was approximately 5×10^5 colony forming units/mL (CFU/mL). Plates were incubated at 37° C. for 18-24 hours and read visually. The MIC, i.e. the lowest concentration of the test compound that inhibited visible growth of the bacteria, was recorded. The same assay conditions were used when the compounds of this invention were tested in combination with β-lactamase inhibitors. While the compounds of this invention were serially diluted as described above, a constant concentration of the inhibitor of 4 mg/L was used.
(§2) Bacterial strains that were used to evaluate the antimicrobial activity using the MIC determination included but were not limited to E. coli clinical isolate, E. coli 8739, K. pneumoniae clinical isolate, K. pneumoniae 700603, E. cloacae clinical isolate, E. cloacae 700323, A. baumannii clinical isolate, A. baumannii 19606, P. aeruginosa clinical isolate, P. aeruginosa 9027.

P. aeruginosa 9027 = conditions: Pseudomonas aeruginosa, Mueller Hinton Broth II, 37° C., 18-24 hours, read-out: Strain 10 MIC
Method: as §1, §2

E. coli 8739 = conditions: Escherichia coli, Mueller Hinton Broth II, 37° C., 18-24 hours, read-out: Strain 2 MIC
Method: as §1, §2

E. coli clinical isolate = conditions: Escherichia coli, Mueller Hinton Broth II, 37° C., 18-24 hours, read-out: Strain 1 MIC
Method: as §1, §2

A. baumannii 19606 = conditions: Acinetobacter baumannii, Mueller Hinton Broth II, 37° C., 18-24 hours, read-out: Strain8 MIC
Method: as §1, §2

K. pneumoniae 700603 = conditions: Klebsiella pneumoniae, Mueller Hinton Broth II, 37° C., 18-24 hours, read-out: Strain 4 MIC
Method: as §1, §2

E. cloacae 700323 = conditions: Enterobacter cloacae, Mueller Hinton Broth II, 37° C., 18-24 hours, read-out: Strain 6 MIC
Method: as §1, §2

[2] = tested on: A. baumannii clinical isolate; conditions: Acinetobacter baumannii, Mueller Hinton Broth II, 37° C., 18-24 hours, read-out: Strain 7 MIC
Method: as §1, §2

[3] = tested on: E. cloacae clinical isolate; conditions: Enterobacter cloacae, Mueller Hinton Broth II, 37° C., 18-24 hours, read-out: Strain5 MIC
Method: as §1, §2

[4] = tested on: K. pneumoniae clinical isolate; conditions: Klebsiella pneumoniae, Mueller Hinton Broth II, 37° C., 18-24 hours, read-out: Strain 3 MIC
Method: as §1, §2

Compound	MIC [1]	MIC (P. aeruginosa 9027)	MIC (E. coli 8739)	MIC (E. coli clinical isolate)	MIC (A. baumannii 19606)	MIC (K. pneumoniae 700603)	MIC (E. cloacae 700323)	MIC [2]	MIC [3]	MIC [4]
Cc1sc(N)nc1/C(=N/O[C@@H](COc1ccc(C(=N)N[C@@H]2CCNC2)cc1)C(=O)O)C(=O)N[C@@H]1C(=O)N(S(=O)(=O)O)[C@H]1C [Example 8, (S)-2-((((Z)-1-(2-amino-5-methylthiazol-4-yl)-2-(((2S,3S)-2-methyl-4-oxo-1-sulfoazetidin-3-yl)amino)-2-oxoethylidene)amino)oxy)-3-(4-(N-((R)-pyrrolidin-3-yl)carbamimidoyl)phenoxy)propanoic acid]	16 µg/mL	1 µg/mL	0.5 µg/mL	1 µg/mL	16 µg/mL	64 µg/mL	32 µg/mL	32 µg/mL	64 µg/mL	32 µg/mL
Cc1sc(N)nc1/C(=N/O[C@@H](COc1ccc(C(=N)N[C@@H]2CCCNC2)cc1)C(=O)O)C(=O)N[C@@H]1C(=O)N(OS(=O)(=O)O)C1(C)C [Example 2, (S)-2-((((Z)-1-(2-Amino-5-methylthiazol-4-yl)-2-(((S)-2,2-dimethyl-4-oxo-1-(sulfooxy)azetidin-3-yl)amino)-2-oxoethylidene)amino)oxy)-3-(4-(N-((R)-piperidin-3-yl)carbamimidoyl)phenoxy)propanoic acid]	8 µg/mL	32 µg/mL	2 µg/mL	4 µg/mL	16 µg/mL	64 µg/mL	32 µg/mL	16 µg/mL	64 µg/mL	32 µg/mL
Cc1sc(N)nc1/C(=N/O[C@@H](COc1ccc(C(=N)N[C@H]2CCCNC2)cc1)C(=O)O)C(=O)N[C@@H]1C(=O)N(OS(=O)(=O)O)C1(C)C [Example 5, (S)-2-((((Z)-1-(2-Amino-5-methylthiazol-4-yl)-2-(((S)-2,2-dimethyl-4-oxo-1-(sulfooxy)azetidin-3-yl)amino)-2-oxoethylidene)amino)oxy)-3-(4-(N-((S)-piperidin-3-yl)carbamimidoyl)phenoxy)propanoic acid]	4 µg/mL	4 µg/mL	4 µg/mL	4 µg/mL	16 µg/mL	64 µg/mL	32 µg/mL	32 µg/mL	64 µg/mL	32 µg/mL
Cc1sc(N)nc1/C(=N/O[C@@H](COc1ccc(C(=N)NC2CNC2)cc1)C(=O)O)C(=O)N[C@@H]1C(=O)N(OS(=O)(=O)O)C1(C)C [Example 4, (S)-2-((((Z)-1-(2-Amino-5-methylthiazol-4-yl)-2-(((S)-2,2-dimethyl-4-oxo-1-(sulfooxy)azetidin-3-yl)amino)-2-oxoethylidene)amino)oxy)-3-(4-(N-(azetidin-3-yl)carbamimidoyl)phenoxy)propanoic acid]	8 µg/mL	4 µg/mL	4 µg/mL	4 µg/mL	16 µg/mL	64 µg/mL	32 µg/mL	32 µg/mL	32 µg/mL	32 µg/mL
C[C@H]1[C@H](NC(=O)/C(=N\OC(C)(C)C(=O)O)c2csc(N)n2)C(=O)N1S(=O)(=O)O [AZT, Aztreonam, reference compound]	> 64 µg/mL	16 µg/mL	16 µg/mL	> 64 µg/mL	32 µg/mL	64 µg/mL	> 64 µg/mL	> 64 µg/mL	> 64 µg/mL	64 µg/mL
Cc1sc(N)nc1/C(=N/O[C@@H](COc1ccc(C(=N)NC2CCNCC2)cc1)C(=O)O)C(=O)N[C@@H]1C(=O)N(OS(=O)(=O)O)C1(C)C [Example 1, (S)-2-((((Z)-1-(2-Amino-5-methylthiazol-4-yl)-2-(((S)-2,2-dimethyl-4-oxo-1-(sulfooxy)azetidin-3-yl)amino)-2-oxoethylidene)amino)oxy)-3-(4-(N-(piperidin-4-yl)carbamimidoyl)phenoxy)propanoic acid]	16 µg/mL	8 µg/mL	4 µg/mL	4 µg/mL	16 µg/mL	32 µg/mL	32 µg/mL	32 µg/mL	64 µg/mL	32 µg/mL
CC(C)(O/N=C(\C(=O)N[C@@H]1C(=O)N2C(C(=O)[O-])=C(C[n+]3ccccc3)CS[C@H]12)c1csc(N)n1)C(=O)O [CAZ, Ceftazidime, reference compound]	> 64 µg/mL	> 64 µg/mL	> 64 µg/mL	> 64 µg/mL	> 64 µg/mL	> 64 µg/mL	> 64 µg/mL	> 64 µg/mL	> 64 µg/mL	> 64 µg/mL
Cc1sc(N)nc1/C(=N/O[C@@H](COc1ccc(C(=N)N[C@H]2CCNC2)cc1)C(=O)O)C(=O)N[C@@H]1C(=O)N(OS(=O)(=O)O)C1(C)C [Example 3, (S)-2-((((Z)-1-(2-Amino-5-methylthiazol-4-yl)-2-(((S)-2,2-dimethyl-4-oxo-1-(sulfooxy)azetidin-3-yl)amino)-2-oxoethylidene)amino)oxy)-3-(4-(N-((S)-pyrrolidin-3-yl)carbamimidoyl)phenoxy)propanoic acid]	8 µg/mL	8 µg/mL	4 µg/mL	4 µg/mL	32 µg/mL	64 µg/mL	32 µg/mL	32 µg/mL	64 µg/mL	32 µg/mL
CC1(C)[C@H](NC(=O)/C(=N\O[C@@H](COc2ccc(C(=N)N[C@@H]3CCNC3)cc2)C(=O)O)c2nc(N)sc2C(F)(F)F)C(=O)N1OS(=O)(=O)O [Example 7, (S)-2-((((Z)-1-(2-Amino-5-(trifluoromethyl)thiazol-4-yl)-2-(((S)-2,2-dimethyl-4-oxo-1-(sulfooxy)azetidin-3-yl)amino)-2-oxoethylidene)amino)oxy)-3-(4-(N-((R)-pyrrolidin-3-yl)carbamimidoyl)phenoxy)propanoic acid]	8 µg/mL	16 µg/mL	8 µg/mL	32 µg/mL	16 µg/mL	8 µg/mL	32 µg/mL	16 µg/mL	32 µg/mL	16 µg/mL
Cc1sc(N)nc1/C(=N/O[C@@H](COc1ccc(C(=N)N[C@@H]2CCNC2)cc1)C(=O)O)C(=O)N[C@@H]1C(=O)N(OS(=O)(=O)O)C1(C)C [Example 6, (S)-2-((((Z)-1-(2-Amino-5-methylthiazol-4-yl)-2-(((S)-2,2-dimethyl-4-oxo-1-(sulfooxy)azetidin-3-yl)amino)-2-oxoethylidene)amino)oxy)-3-(4-(N-((R)-pyrrolidin-3-yl)carbamimidoyl)phenoxy)propanoic acid]	2 µg/mL	2 µg/mL	0.25 µg/mL	1 µg/mL	8 µg/mL	1 µg/mL	4 µg/mL	8 µg/mL	2 µg/mL	1 µg/mL
